Series [1] can be described thus: Solute diffusion from microfluidic channels into agarose hydrogel (time-lapse fluorescence). The series is classed as physicochemical. As to conditions: solution pumped through channels at 25 μL/min; 1.5 wt % agarose.
Protocol: To illustrate a dynamic solute exchange between the hydrogel and the fluid in the microchannels, a liquid suspension of 1.5 wt % agarose in DI water was pipetted into the open reservoir of the microfluidic device. After solidification of the agarose, water containing 1.0 wt % rhodamine was introduced into the inlet using a syringe pump at a constant volumetric flowrate of 25 μL/min. Time-lapse images were taken every 30 seconds using a TI-E Nikon microscope and the fluorescent intensity was measured in the resulting images using NIS-Elements software in order to track the rhodamine diffusion from the channels into the agarose hydrogel.
Water containing 1.0 wt % rhodamine (0.48 kDa) was introduced into the microfluidic channels at a flowrate of 25 μL/min. […] Florescent intensity at two points—one directly beneath a PDMS wall and another centred beneath a microfluidic channel—was tracked over time.
The conditions of series [2]: modelled value for rhodamine in 1.5% agarose hydrogel medium; cited from earlier work.
Series [3] can be described thus: Incubation of a PDMS surface in contact with rhodamine solution. In kind it is physicochemical. The settings on record: 1.5 wt % solution of rhodamine, over 180 seconds.

Consider one substance from patent US11326138B2, “Cell culture device and methods of use thereof” (University of Kentucky Research Foundation, priority 2017, dated 2022).

Take rhodamine: the “diffusion from microchannels into adjacent hydrogel” value in series [1] is given as “diffused into the adjacent hydrogel”. The “diffusion coefficient D” value in series [2] was 4×10^−6 cm^2/sec. The “diffusion into PDMS” value in series [3] is given as “no detectable diffusion”.
